Data as given in ChEMBL document CHEMBL1921757, “Small molecule probes of the receptor binding site in the Vibrio cholerae CAI-1 quorum sensing circuit” (Bioorg Med Chem, 2011).
pEC50, pIC50: −log10 of the molar value.

Assays:
[1] = target: T1, CAI-1 autoinducer sensor kinase/phosphatase CqsS (Vibrio cholerae serotype O1 (strain ATCC 39315 / El Tor Inaba N16961)) (UniProt Q9KM66); assay: Ratio of compound EC50 to (S)-CAI-1 EC50 for CqsS receptor in cqsA-deficient, luxQ-deficient Vibrio cholerae MM920 harboring cosmid pBB1 carrying Vibrio harveyi luxCDABE gene assessed as induction of quorum sensing regulated bioluminescence after 4 hrs by scintillation counting
T1 sequence (whole entry): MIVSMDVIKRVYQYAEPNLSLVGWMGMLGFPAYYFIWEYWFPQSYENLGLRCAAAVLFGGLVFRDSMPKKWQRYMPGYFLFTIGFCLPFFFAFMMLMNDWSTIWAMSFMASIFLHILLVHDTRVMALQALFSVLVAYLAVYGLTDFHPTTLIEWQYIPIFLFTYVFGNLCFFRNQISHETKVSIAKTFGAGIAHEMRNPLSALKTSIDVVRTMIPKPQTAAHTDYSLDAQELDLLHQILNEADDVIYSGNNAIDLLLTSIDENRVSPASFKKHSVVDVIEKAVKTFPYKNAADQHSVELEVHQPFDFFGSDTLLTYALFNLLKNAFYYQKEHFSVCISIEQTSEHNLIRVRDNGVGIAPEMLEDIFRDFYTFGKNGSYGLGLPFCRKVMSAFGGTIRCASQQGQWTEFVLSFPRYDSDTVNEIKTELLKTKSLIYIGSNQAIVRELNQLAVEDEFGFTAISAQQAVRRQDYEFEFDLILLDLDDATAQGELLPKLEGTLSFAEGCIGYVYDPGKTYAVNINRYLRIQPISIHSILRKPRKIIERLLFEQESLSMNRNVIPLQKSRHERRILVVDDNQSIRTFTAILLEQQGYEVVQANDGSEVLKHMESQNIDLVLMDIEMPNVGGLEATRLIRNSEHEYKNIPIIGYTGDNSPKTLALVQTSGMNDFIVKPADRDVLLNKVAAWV

Vibrio cholerae = assay: Antibacterial activity against Vibrio cholerae MM920 assessed as growth inhibition after 4 hrs by spectrophotometry; type: organism-based; conditions: in vivo
[2] = target: T2, CAI-1 autoinducer sensor kinase/phosphatase CqsS (Vibrio cholerae serotype O1 (strain ATCC 39315 / El Tor Inaba N16961), UniProt Q9KM66); assay: Agonist activity at CqsS receptor in cqsA-deficient, luxQ-deficient Vibrio cholerae MM920 harboring cosmid pBB1 carrying Vibrio harveyi luxCDABE gene assessed as induction of quorum sensing regulated bioluminescence after 4 hrs by scintillation counting; type: functional
T2 sequence (Q9KM66 whole entry): T1 sequence (whole entry)

[3] = target: T1, CAI-1 autoinducer sensor kinase/phosphatase CqsS (Vibrio cholerae serotype O1 (strain ATCC 39315 / El Tor Inaba N16961)); assay: Agonist activity at CqsS receptor in cqsA-deficient, luxQ-deficient Vibrio cholerae MM920 harboring cosmid pBB1 carrying Vibrio harveyi luxCDABE gene assessed as quorum sensing regulated bioluminescence after 4 hrs by scintillation counting relative to (S)-CAI-1; type: functional
[4] = target: T1, CAI-1 autoinducer sensor kinase/phosphatase CqsS (Vibrio cholerae serotype O1 (strain ATCC 39315 / El Tor Inaba N16961)); assay: Agonist activity at CqsS receptor in cqsA-deficient, luxQ-deficient Vibrio cholerae MM920 harboring cosmid pBB1 carrying Vibrio harveyi luxCDABE gene assessed as maximal quorum sensing regulated bioluminescence at 50 uM after 4 hrs by scintillation counting relative to (S)-CAI-1; type: functional
[5] = target: T1, CAI-1 autoinducer sensor kinase/phosphatase CqsS (Vibrio cholerae serotype O1 (strain ATCC 39315 / El Tor Inaba N16961)); assay: Ratio of compound IC50 to Ph-CAI-1 IC50 for CqsS receptor in Vibrio cholerae MM920 assessed as inhibition of quorum sensing regulated CAI-1 induced bioluminescence after 4 hrs by scintillation counting
[6] = target: T2, CAI-1 autoinducer sensor kinase/phosphatase CqsS; assay: Antagonist activity at CqsS receptor in Vibrio cholerae MM920 assessed as inhibition of quorum sensing regulated CAI-1 induced bioluminescence after 4 hrs by scintillation counting; type: functional
[7] = target: T1, CAI-1 autoinducer sensor kinase/phosphatase CqsS (Vibrio cholerae serotype O1 (strain ATCC 39315 / El Tor Inaba N16961)); assay: Antagonist activity at CqsS receptor in Vibrio cholerae MM920 assessed as inhibition of quorum sensing regulated CAI-1 induced bioluminescence after 4 hrs by scintillation counting relative to Ph-CAI-1; type: functional

Structure (SMILES) | Ratio EC50 [1] | growth inhibition (GI) (Vibrio cholerae) | pEC50 [2] | Emax [3] [%] | Emax [4] [%] | Ratio IC50 [5] | pIC50 [6] | Imax [7] [%]
CCCCCCCCCCC(=O)CC | > 200 | Not Active | < 4.30 |  |  |  |  | 
CCCCCCCCC(=O)[C@@H](O)CC | 4.6 | Not Active | 5.96 | 100 |  |  |  | 
CCCCCCCCCC(O)C(=O)CC (configuration not stated) | 84 | Not Active |  | 38 |  |  |  | 
CCCCCCC(=O)[C@@H](O)CC | > 200 | Not Active | < 4.30 |  | 59 |  |  | 
CCCCCCCCCC(=O)CCC | > 200 | Not Active | < 4.30 |  |  |  |  | 
CCCCCCCCCC(=O)C(O)c1ccccc1OC (racemic) |  | Not Active |  |  |  | > 9 | < 3.30 | 
CCCCCCCCCC(=O)C(O)c1cccc(Cl)c1 (racemic) |  | Not Active |  |  |  | > 9 | < 3.30 | 
CCCCCCCCCC(=O)C(O)c1ccccc1O (racemic) |  | Not Active |  |  |  | 3.4 | 3.76 | 144
CCCCCCCCCC(=O)C(O)c1ccc(C)c(C)c1 (racemic) |  | Not Active |  |  |  | > 9 | < 3.30 | 
CCCCCCCCCC(=O)C(O)c1ccc(Cl)cc1 (racemic) |  | Not Active |  |  |  | > 9 | < 3.30 | 
CCCCCCCCCC(=O)C(O)C(C)C (racemic) | 21 | Not Active | 5.15 | 71 |  |  |  | 
CCCCCCCCCC(=O)C(O)c1ccc(F)cc1 (racemic) |  | Not Active |  |  |  | 2.7 | 3.86 | 125
CCCCCCCCCC(=O)C(O)c1ccccc1Br (racemic) |  | Not Active |  |  |  | > 9 | < 3.30 | 
CCCCCCCCCC(=O)C(O)c1ccc(O)c(O)c1 (racemic) |  | Not Active |  |  |  | 3.4 | 3.76 | 122
CCCCCCCCCC(=O)C(Br)CC (configuration not stated) | 13 | Not Active | 5.62 | 73 |  |  |  | 
CCCCCCCCCC(=O)C(N)CC.Cl (configuration not stated) | 0.27 | Not Active | 6.68 | 105 |  |  |  | 
CCCCCCCCCC(=O)C(O)c1cccc(OC)c1 (racemic) |  | Not Active |  |  |  | > 9 | < 3.30 | 
CCCCCCCCCC(=O)C(O)c1ccc(C)cc1 (racemic) |  | Not Active |  |  |  | 2.2 | 3.94 | 99
CCCCCCCCCCC(=O)[C@@H](O)CC | 8.4 | Not Active | 5.68 | 98 |  |  |  | 
CCCCCCCCCC(=O)C(O)c1ccccc1Cl (racemic) |  | Not Active |  |  |  | > 9 | < 3.30 | 
CCCCCCCCCC(=O)C(O)c1ccc(Br)cc1 (racemic) |  | Not Active |  |  |  | 2.6 | 3.73 | 71
CCCCCCCCCC(=O)C(=O)CC | 14 | Not Active | 5.49 | 92 |  |  |  | 
CCCCCCCCCC(=O)[C@H](C)O | 2.6 | Not Active | 6.47 | 96 |  |  |  | 
CCCCCCCCCC(=O)[C@H](O)CC |  | Not Active |  |  |  |  |  | 
CCCCCCCCCC(=O)C(S)CC (configuration not stated) | 8.6 | Not Active | 5.80 | 67 |  |  |  | 

Structure (SMILES) | Ratio EC50 [1] | growth inhibition (GI) (Vibrio cholerae) | pEC50 [2] | Emax [3] [%] | Emax [4] [%] | Ratio IC50 [5] | pIC50 [6] | Imax [7] [%]
CCCCCCCC(=O)[C@@H](O)CC |  | Not Active |  |  |  |  |  | 
CCCCCCCC(=O)[C@H](O)CC |  | Not Active |  |  |  |  |  | 
CCCCCCCCCC(=O)C(O)c1ccc(OC)cc1 (racemic) |  | Not Active |  |  |  | > 9 | < 3.30 | 
CCCCCCCCCC(=O)C(N)c1ccccc1.Cl (racemic) |  | Not Active |  |  |  | > 9 | < 3.30 | 
CCCCCC(=O)[C@@H](O)CC | > 200 | Not Active | < 4.30 |  | 27 |  |  | 
CCCCCCCCCC(=O)C(O)c1cccc(C)c1 (racemic) |  | Not Active |  |  |  | 0.91 | 4.34 | 58
CCCCCCCCCC(=O)C(O)c1ccccc1 (racemic) |  | Not Active |  |  |  | 1 | 4.26 | 100
CCCCCCCCC(=O)[C@H](O)CC | 6.7 | Not Active | 5.79 | 95 |  |  |  | 
CCCCCCCCCCCCC(=O)[C@@H](O)CC | > 200 | Not Active | < 4.30 |  | 45 |  |  | 
CCCCCCCCCC(=O)C(O)c1cccc(F)c1 (racemic) |  | Not Active |  |  |  | 3.5 | 3.75 | 112
CCCCCCCCCC(=O)C(O)c1ccc(O)cc1 (racemic) |  | Not Active |  |  |  | 1.5 | 4.11 | 119
CCCCCCCCCC(=O)C(O)C(C)(C)C (racemic) | > 200 | Not Active | < 4.30 |  |  |  |  | 
CCCCCCCCCC(=O)C(O)c1cccc(Br)c1 (racemic) |  | Not Active |  |  |  | > 9 | < 3.30 | 
CCCCCCCCCC(=O)C(O)c1cccc(O)c1 (racemic) |  | Not Active |  |  |  | 0.71 | 4.44 | 123
CCCCCCCCCC(=O)C(O)c1cc(F)ccc1F (racemic) |  | Not Active |  |  |  | 1.3 | 4.17 | 48
CCCCCCCCCC(O)C(O)CC (mixture of isomers) | 18 | Not Active | 5.37 | 83 |  |  |  | 
CCCCCCCCCC(=O)C(Cl)CC (configuration not stated) | > 200 | Not Active | < 4.30 | 24 |  |  |  | 
CCCCCCCCCC(=O)C(O)c1ccccc1F (racemic) |  | Not Active |  |  |  | 1.5 | 4.13 | 105
CCCCCCCCCC(=O)C(O)CCC (racemic) | 6 | Not Active | 6.11 | 84 |  |  |  | 
CCCCCCCCCC(=O)[C@@H](O)CC |  | Not Active |  |  |  |  |  | 
CCCCCCCCCC(=O)C(O)c1ccccc1C (racemic) |  | Not Active |  |  |  | > 9 | < 3.30 | 
CCCCCCCCCC(O)CCC (configuration not stated) | > 200 | Not Active | < 4.30 |  |  |  |  | 
CCCCCCCCCC(=O)C(O)Cc1ccccc1 (racemic) |  | Not Active |  |  |  | 1.9 | 3.87 | 124
CCCCCCCCCCC(O)CC (configuration not stated) | > 200 | Not Active | < 4.30 |  |  |  |  | 
